# Test results as given in ChEMBL document CHEMBL5370652, “Ligand Sulfur Oxidation State Progressively Alters Galectin-3-Ligand Complex Conformations To Induce Affinity-Influencing Hydrogen Bonds” (J Med Chem, 2023).
# How the values were obtained:
# Galectin-3 [1] = molecular target: T1, Galectin-3 (Homo sapiens, UniProt P17931); assay: Binding affinity to wild type Galectin-3 (unknown origin) assessed as dissociation constant by fluorescence polarization assay
# Galectin-3 [2] = molecular target: T1, Galectin-3; assay: Binding affinity to Galectin-3 (unknown origin) assessed as dissociation constant by fluorescence polarization assay
# Galectin-3 [3] = molecular target: T1, Galectin-3
# Description: Binding affinity to Galectin-3 (unknown origin) assessed as change in entropy by isothermal titration calorimetry analysis
# Galectin-3 [4] = molecular target: T1, Galectin-3; remark: listed apart in the source
# Description: Binding affinity to Galectin-3 (unknown origin) assessed as gibbs free energy change by isothermal titration calorimetry analysis
# Galectin-3 [5] = molecular target: T1, Galectin-3; remark: listed apart in the source
# Description: Binding affinity to Galectin-3 (unknown origin) assessed as change in enthalpy by isothermal titration calorimetry analysis
# T1 sequence (P17931 whole entry): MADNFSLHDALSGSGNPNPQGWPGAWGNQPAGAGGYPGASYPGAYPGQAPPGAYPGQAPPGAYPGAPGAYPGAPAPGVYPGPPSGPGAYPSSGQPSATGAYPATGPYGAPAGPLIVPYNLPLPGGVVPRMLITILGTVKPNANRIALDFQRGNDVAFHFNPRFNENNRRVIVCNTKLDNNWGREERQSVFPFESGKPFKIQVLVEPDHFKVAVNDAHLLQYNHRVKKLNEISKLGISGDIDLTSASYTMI
Kd (Galectin-3 [1]) [µM],Kd (Galectin-3 [2]) [µM],-TdeltaS (Galectin-3 [3]) [kcal/mol],deltaG (Galectin-3 [4]) [kcal/mol],deltaH (Galectin-3 [5]) [kcal/mol],Structure (SMILES)
79,–,–,–,–,Cc1ccc(S[C@@H]2O[C@H](CO)[C@H](O)[C@H](n3cc(S(=O)(=O)c4ccccc4)nn3)[C@H]2O)cc1
–,55.5,0.62,-5.55,-6.17,[O-][S+](c1ccccc1)c1cn([C@H]2[C@@H](O)[C@@H](CO)O[C@@H](S[C@@H]3O[C@H](CO)[C@@H](O)[C@H](O)[C@H]3O)[C@@H]2O)nn1 (stereo not given in full)
